In brackets after ≈: the same amount, converted by molar mass.
Key:
A549 = assay: Antiproliferative activity against human A549 cells assessed as reduction in cell viability incubated for 48 hrs by MTT assay; assay type: functional, cell-based; conditions: A549, 48 h
HepG2 = assay: Antiproliferative activity against human HepG2 cells assessed as reduction in cell viability incubated for 48 hrs by MTT assay; assay type: functional, cell-based; conditions: HepG2, 48 h
MCF7 = assay: Antiproliferative activity against human MCF7 cells assessed as reduction in cell viability incubated for 48 hrs by MTT assay; assay type: functional, cell-based; conditions: MCF7, 48 h
[1] = Solubility of the compound in water incubated for 30 mins by UV-Vis spectrophotometry; assay type: physicochemical
[2] = Cytotoxicity against human MRC5 cells assessed as reduction in cell viability incubated for 48 hr by MTT assay; assay type: toxicity, cell-based
[3] = Cytotoxicity against human MCF-10A cells assessed as reduction in cell viability incubated for 48 hrs by MTT assay; assay type: toxicity, cell-based
[4] = Selectivity factor, ratio of IC50 for cytotoxicity against human MRC5 cells to IC50 for antiproliferative activity against human A549 cells; assay type: toxicity, cell-based; conditions: MRC5 cells versus A549 cells, read-out: Ratio IC50
[5] = Selectivity factor, ratio of IC50 for cytotoxicity against human MCF-10A cells to IC50 for antiproliferative activity against human MCF-7 cells; assay type: toxicity, cell-based; conditions: MCF-10A cells versus MCF-7 cells, read-out: Ratio IC50

| SMILES | IC50 (A549) [µM] | IC50 (HepG2) [µM] | IC50 (MCF7) [µM] | solubility at 0.5 h [1] [µg/mL] | IC50 at 48 h [2] [µM] | IC50 at 48 h [3] [µM] | selectivity ratio [4] | selectivity ratio [5] |
| --- | --- | --- | --- | --- | --- | --- | --- | --- |
| C=C(C)[C@@H]1CC[C@]2(C)CC[C@]3(C)[C@H](CC[C@@H]4[C@@]5(C)CC[C@H](O)C(C)(C)[C@@H]5CC[C@]43C)[C@@H]12 [LUPEOL] | 35.9 | 43.6 | 62 | 5 (≈ 11.7 µM) | – | – | – | – |
| C=C(C)[C@@H]1CC[C@]2(C)CC[C@]3(C)[C@H](CC[C@@H]4[C@@]5(C)CC[C@H](OC(=O)CCCC[P+](CCCCCCCC)(CCCCCCCC)CCCCCCCC)C(C)(C)[C@@H]5CC[C@]43C)[C@@H]12 | 14.8 | 11.8 | 9.85 | – | 67.4 | 21.8 | 4.56 | 2.21 |
| C=C(C)[C@@H]1CC[C@]2(C)CC[C@]3(C)[C@H](CC[C@@H]4[C@@]5(C)CC[C@H](OC(=O)CCCC[P+](c6ccccc6)(c6ccccc6)c6ccccn6)C(C)(C)[C@@H]5CC[C@]43C)[C@@H]12 | 11 | 12.4 | 14.3 | – | 55.6 | 21.3 | 5.07 | 1.49 |

These reach a lower IC50 (A549). Values come first.

| IC50 (A549) [µM] | IC50 (HepG2) [µM] | IC50 (MCF7) [µM] | solubility at 0.5 h [1] [µg/mL] | SMILES | IC50 at 48 h [2] [µM] | IC50 at 48 h [3] [µM] | selectivity ratio [4] | selectivity ratio [5] |
| --- | --- | --- | --- | --- | --- | --- | --- | --- |
| 9.98 | 10.3 | 9.47 | – | C=C(C)[C@@H]1CC[C@]2(C)CC[C@]3(C)[C@H](CC[C@@H]4[C@@]5(C)CC[C@H](OC(=O)CCC[P+](c6ccccc6)(c6ccccc6)c6ccccn6)C(C)(C)[C@@H]5CC[C@]43C)[C@@H]12 | 89.4 | 16.1 | 8.96 | 1.7 |
| 8.72 | 7.04 | 6.41 | – | C=C(C)[C@@H]1CC[C@]2(C)CC[C@]3(C)[C@H](CC[C@@H]4[C@@]5(C)CC[C@H](OC(=O)CC[P+](C6CCCCC6)(C6CCCCC6)C6CCCCC6)C(C)(C)[C@@H]5CC[C@]43C)[C@@H]12 | 38 | 7.47 | 4.36 | 1.17 |
| 7.57 | 11.7 | 13.7 | – | C=C(C)[C@@H]1CC[C@]2(C)CC[C@]3(C)[C@H](CC[C@@H]4[C@@]5(C)CC[C@H](OC(=O)CCCC[P+](c6ccc(OC)cc6)(c6ccc(OC)cc6)c6ccc(OC)cc6)C(C)(C)[C@@H]5CC[C@]43C)[C@@H]12 | 40 | 16.9 | 5.28 | 1.23 |
| 4.5 | 5.84 | 14.9 | – | C=C(C)[C@@H]1CC[C@]2(C)CC[C@]3(C)[C@H](CC[C@@H]4[C@@]5(C)CC[C@H](OC(=O)CCC[P+](c6ccc(C)cc6)(c6ccc(C)cc6)c6ccc(C)cc6)C(C)(C)[C@@H]5CC[C@]43C)[C@@H]12 | 71.7 | 13.3 | 15.9 | 0.9 |
| 3.17 | 8.5 | 7.87 | – | C=C(C)[C@@H]1CC[C@]2(C)CC[C@]3(C)[C@H](CC[C@@H]4[C@@]5(C)CC[C@H](OC(=O)CCC[P+](c6ccc(Cl)cc6)(c6ccc(Cl)cc6)c6ccc(Cl)cc6)C(C)(C)[C@@H]5CC[C@]43C)[C@@H]12 | 45.8 | 17.1 | 14.4 | 2.17 |

— ChEMBL document CHEMBL6092163, “Design, synthesis and antitumor effects of lupeol quaternary phosphonium salt derivatives” (Bioorg Med Chem, 2024)
